Experimental data as given in patent US20240197691A1, “TACROLIMUS COMPOSITIONS AND METHODS OF USE” (CN2 THERAPEUTICS, INC., priority 2022, published 2024).
Several values for one entry are separate records, joined by “and”; a condition that tells them apart may be missing. Identical values can stand only once. One block for each compound: values may come before it.

Columns and labels:
[1] = reported; cited from earlier work
[2] = Gamma irradiation of Tacrolimus; format: physicochemical
From the text: In certain embodiments, the composition can be irradiated before administration to a subject. For example, at least one component of the composition, such as, for example, tacrolimus, can undergo gamma irradiation before the final composition is created or the final composition can undergo gamma irradiation. In certain embodiments, the composition can be irradiated at a dose ranging from about 1 kilo-Gray (kGy) to about 100 kGy, preferably about 10 kGy to about 75 kGy, most preferably about 15 kGy to about 40 kGy.
The composition can be irradiated at a dose ranging from about 1 kilo-Gray (kGy) to about 100 kGy, preferably about 10 kGy to about 75 kGy, most preferably about 15 kGy to about 40 kGy (Table 36).

[3] = Forced degradation (thermal, acidic, basic, oxidative, UV); format: physicochemical
Method: Forced degradation of the drug product by thermal, acidic, basic, oxidative and UV stress conditions was performed. Forced degradation for the thermal, acidic and oxidative conditions were performed at 40° C., as it was anticipated that the drug would be stable under these conditions, based on its structure. UV and basic conditions were performed at ambient conditions. The drug product is most susceptible to basic stress conditions, and to a lesser extent is susceptible to UV and oxidative conditions. A summary of all the degradation peaks as a function of the stress condition can be found in Table 28.

[4] = pH 5
[5] = Surface tension (pendant drop); format: physicochemical; settings: Theta Lite Optical Tensiometer, 5 μL
Method: The Theta Lite Optical Tensiometer, Pendant drop Method, 5 μL sample size was used to measure the surface tension of the tacrolimus compositions.

[6] = Contact angle on parafilm; format: physicochemical; settings: 20 μL on parafilm, ambient temperature
Method: The Theta Lite Optical Tensiometer, Dynamic Contact Angle Measurement, 20 μL sample size was used to measure the contact angle of the tacrolimus compositions of parafilm of 73.50 and 73.20. The tacrolimus composition has better wettability on the hydrophobic surface of parafilm when compared to water (97.90 and 99.90).

Compound: C=CC[C@@H]1/C=C(\C)C[C@H](C)C[C@H](OC)[C@H]2O[C@@](O)(C(=O)C(=O)N3CCCC[C@H]3C(=O)O[C@H](/C(C)=C/[C@@H]3CC[C@@H](O)[C@H](OC)C3)[C@H](C)[C@@H](O)CC1=O)[C@H](C)C[C@@H]2OC.O [Tacrolimus]
log P [1]: 3.3 | % impurities ([2]; 15 kGy solid): 0.82% | Total [Tac] in sample measured ([2]; 15 kGy solid): 0.96 mg/g | % impurities ([2]; 25 kGy solid): 0.88% | Total [Tac] in sample measured ([2]; 25 kGy solid): 0.92 mg/g | % impurities ([2]; 40 kGy solid): 0.91% | Total [Tac] in sample measured ([2]; 40 kGy solid): 0.91 mg/g | % impurities ([2]; Control solid): 0.56% | Total [Tac] in sample measured ([2]; Control solid): 0.99 mg/g | Degradant at RRT 0.52, Area % ([3]; Acid, 72h (40° C.)): 0.52 (0.47%) | Degradant at RRT 1.32, Area % ([3]; Acid, 72h (40° C.)): 1.32 (0.09%) | Degradant at RRT 1.36, Area % ([3]; Acid, 72h (40° C.)): 1.36 (0.07%) | Degradant at RRT 0.39, Area % ([3]; Base, 5 min (ambient)): 0.39 (1.52%) | Degradant at RRT 0.52, Area % ([3]; Base, 5 min (ambient)): 0.52 (27.62%) | Degradant at RRT 0.79, Area % ([3]; Base, 5 min (ambient)): 0.79 (0.97%) | Degradant at RRT 1.28, Area % ([3]; Base, 5 min (ambient)): 1.28 (0.20%) | Degradant at RRT 1.32, Area % ([3]; Base, 5 min (ambient)): 1.32 (3.02%) | Degradant at RRT 1.35, Area % ([3]; Base, 5 min (ambient)): 1.35 (2.37%) | Degradant at RRT 0.43, Area % ([3]; Peroxide, 48 h (40° C.)): 0.43 (2.03%) | Degradant at RRT 1.18, Area % ([3]; Peroxide, 48 h (40° C.)): 1.18 (0.17%) | Degradant at RRT 1.20, Area % ([3]; Peroxide, 48 h (40° C.)): 1.20 (0.05%) | Degradant at RRT 1.25, Area % ([3]; Peroxide, 48 h (40° C.)): 1.25 (0.35%) | Degradant at RRT 1.27, Area % ([3]; Peroxide, 48 h (40° C.)): 1.27 (0.16%) | Degradant at RRT 1.29, Area % ([3]; Peroxide, 48 h (40° C.)): 1.29 (0.10%) | Degradant at RRT 1.33, Area % ([3]; Peroxide, 48 h (40° C.)): 1.33 (0.06%) | Degradant at RRT 1.44, Area % ([3]; Peroxide, 48 h (40° C.)): 1.44 (0.08%) | Degradant at RRT 0.43, Area % ([3]; Thermal, 72 h (40° C.)): 0.43 (0.96%) | Degradant at RRT 0.38, Area % ([3]; UV, 72 h (ambient)): 0.38 (0.36%) | Degradant at RRT 0.45, Area % ([3]; UV, 72 h (ambient)): 0.45 (0.88%) | Degradant at RRT 0.53, Area % ([3]; UV, 72 h (ambient)): 0.53 (3.07%) | Degradant at RRT 0.58, Area % ([3]; UV, 72 h (ambient)): 0.58 (0.40%) | Degradant at RRT 1.03, Area % ([3]; UV, 72 h (ambient)): 1.03 (1.30%) | Degradant at RRT 1.10, Area % ([3]; UV, 72 h (ambient)): 1.10 (0.94%) | Degradant at RRT 1.13, Area % ([3]; UV, 72 h (ambient)): 1.13 (2.90%) | Degradant at RRT 1.17, Area % ([3]; UV, 72 h (ambient)): 1.17 (5.21%) | Degradant at RRT 1.21, Area % ([3]; UV, 72 h (ambient)): 1.21 (13.81%) | Solubility of Tacrolimus in the supernatant [4]: ≤ 3.2 µg/g

Surface Tension [5]: 72 mN/m | Contact angle [6]: 97.9 ° and 99.9 °
Compound: Water
